{"source": "patent US8058243B2", "about": "“Method for treating a brain cancer with ifenprodil” (HSC Research and Development Limited Partnership, priority 2006, dated 2011)", "tested_on": "murine neural precursor cells (neurosphere cultures)", "assay": "HTS of LOPAC library against secondary neurosphere cultures, MTT proliferation assay at 3 μM, day 7 (z score, P value)", "type": "cell-based, mouse", "key": {"[1]": {"conditions": "LOPAC primary screen, neurosphere MTT proliferation, 3 μM, day 7"}, "[2]": {"conditions": "yes/no: significantly inhibited neurosphere proliferation in primary screen"}, "[3]": {"conditions": "yes = significantly inhibited neurosphere proliferation (P<0.01) in the primary screen"}, "[4]": {"conditions": "yes/no: significantly inhibited neurosphere proliferation (P<0.01) in the primary screen"}, "[5]": {"conditions": "yes/no: significantly inhibited neurosphere proliferation (P<0.01) in primary screen"}, "[6]": {"conditions": "primary LOPAC screen, 3 μM, MTT, neurosphere proliferation"}, "[7]": {"conditions": "yes/no: significantly inhibited neurosphere proliferation in the primary screen"}, "[8]": {"conditions": "LOPAC screen, neurosphere MTT proliferation, 3 μM, day 7"}, "[9]": {"conditions": "LOPAC library screen at 3 μM, secondary neurosphere cultures, MTT"}}, "note": "Structures can show the parent of a compound that is named as a salt. Where two headings read alike, the source gives them in different places."}
{"molecule": "CCCCCCCCCCCCCC(=O)O[C@@H]1[C@@H](C)[C@@]2(O)[C@@H](C=C(CO)C[C@]3(O)C(=O)C(C)=C[C@@H]23)[C@@H]2C(C)(C)[C@]12OC(C)=O", "note": "[Phorbol 12-myristate 13-acetate]", "values": [{"measurement": "Z Score", "value": "−0.265"}, {"measurement": "Z score", "setting": "[1]", "value": "−0.265"}, {"measurement": "Activity", "setting": "[2]", "value": "no"}]}
{"molecule": "CCCN(CCC)C(=O)C(CCC(=O)O)NC(=O)c1ccccc1", "note": "(stereo not drawn) [Proglumide]", "values": [{"measurement": "Z Score", "setting": "LOPAC library screen, 3 μM, MTT, secondary neurosphere cultures, day 7", "value": "−1.907"}, {"measurement": "Z score", "setting": "[1]", "value": "−1.907"}, {"measurement": "Activity", "setting": "[3]", "value": "no"}]}
{"molecule": "R(−)-Apocodeine hydrochloride", "values": [{"measurement": "Z Score", "value": "−9.865"}, {"measurement": "Z score", "setting": "[1]", "value": "−9.865"}, {"measurement": "Activity", "setting": "[4]", "value": "yes"}]}
{"molecule": "Br.CO[C@H]1CC=C2CCN3CCC4=C(CC(=O)OC4)[C@]23C1", "note": "[Dihydro-beta-erythroidine hydrobromide]", "values": [{"measurement": "Z Score", "value": "−1.788"}, {"measurement": "Z score", "setting": "[1]", "value": "−1.788"}, {"measurement": "Activity", "setting": "[5]", "value": "no"}]}
{"molecule": "COC(=O)c1c(-c2cc(OC)c(OC)c(OC)c2)c2ccnc(OCc3ncccn3)c2c(=O)n1Cc1ccnc(C)c1", "note": "[T-0156]", "values": [{"measurement": "Z Score", "value": 0.07709}, {"measurement": "Z score", "setting": "[6]", "value": 0.077}, {"measurement": "Activity", "setting": "[7]", "value": "no"}]}
{"molecule": "WB 64", "values": [{"measurement": "Z Score", "value": "−1.683"}, {"measurement": "Z score", "setting": "[6]", "value": "−1.683"}, {"measurement": "Activity", "setting": "[7]", "value": "no"}]}
{"molecule": "NS 521 oxalate", "values": [{"measurement": "Z Score", "value": "−11.27"}]}
{"molecule": "CC(C)[C@@]1(NC(=O)[C@@H]2C=C3c4cccc5[nH]cc(c45)C[C@H]3N(C)C2)O[C@@]2(O)[C@@H]3CCCN3C(=O)[C@H](Cc3ccccc3)N2C1=O", "note": "[Ergocristine]", "values": [{"measurement": "Z Score", "value": 0.4078}, {"measurement": "Z score", "setting": "[1]", "value": 0.408}, {"measurement": "Activity", "setting": "[5]", "value": "no"}]}
{"molecule": "OC[C@H]1O[C@@H](n2cnc3ccccc32)[C@H](O)[C@@H]1O", "note": "[D-ribofuranosylbenzimidazole]", "values": [{"measurement": "Z Score", "value": "−2.144"}, {"measurement": "Z score", "setting": "[8]", "value": "−2.144"}, {"measurement": "Activity", "setting": "[5]", "value": "no"}]}
{"molecule": "CC(C)NCC(O)COc1ccc(CC(N)=O)cc1", "note": "(stereo not drawn) [(B1)-Atenolol]", "values": [{"measurement": "Z Score", "setting": "[9]", "value": "−0.6583"}]}
{"molecule": "CC12CC3CC(C)(C1)CC(N)(C3)C2", "note": "[Memantine hydrochloride]", "values": [{"measurement": "Z Score", "setting": "[9]", "value": "−0.141"}, {"measurement": "Z score", "setting": "[1]", "value": "−0.141"}, {"measurement": "Activity", "setting": "[3]", "value": "no"}]}
{"molecule": "CC(C)(C)[C@]1(O)CCN2C[C@H]3c4ccccc4CCc4cccc(c43)[C@@H]2C1.Cl", "note": "[(B1)-Butaclamol hydrochloride]", "values": [{"measurement": "Z Score", "value": "−5.934"}]}
{"molecule": "CN1CCC[C@@H]1CCO[C@](C)(c1ccccc1)c1ccc(Cl)cc1", "note": "[Clemastine fumarate]", "values": [{"measurement": "Z Score", "setting": "168 h, 3 µM", "value": "−2.023"}, {"measurement": "Z score", "setting": "168 h, 3 µM", "value": "−2.023"}]}
{"molecule": "CCN1C[C@]2(C)CC[C@H](O)[C@]34C1[C@@H](C[C@H]23)[C@@]1(O)C[C@H](OC)[C@H]2C[C@@H]4[C@@H]1[C@H]2O", "note": "[Karakoline]", "values": [{"measurement": "Z Score", "value": "−1.625"}, {"measurement": "Z score", "setting": "[1]", "value": "−1.625"}, {"measurement": "Activity", "setting": "[5]", "value": "no"}]}
{"molecule": "CC1(C)CCC(NC(=O)[C@@H](N)CCC(=O)O)CC1", "note": "[CR 2249]", "values": [{"measurement": "Z Score", "setting": "168 h, 3 µM", "value": "−1.002"}, {"measurement": "Z score", "setting": "168 h, 3 µM", "value": "−1.002"}, {"measurement": "Activity", "setting": "[3]", "value": "no"}]}
{"molecule": "CCOC(=O)C1=C(C)NC(=S)NC1c1cccc(O)c1", "note": "(stereo not drawn) [Monastrol]", "values": [{"measurement": "Z Score", "setting": "168 h, 3 µM", "value": "−1.162"}, {"measurement": "Z score", "setting": "168 h, 3 µM", "value": "−1.162"}]}
{"molecule": "CCN1CCc2nc(N)oc2CC1.Cl.Cl", "note": "[B-HT 933 dihydrochloride]", "values": [{"measurement": "Z Score", "value": "−1.28"}, {"measurement": "Z score", "setting": "[8]", "value": "−1.280"}, {"measurement": "Activity", "setting": "[5]", "value": "no"}]}
{"molecule": "COc1ccc([C@@H]2Sc3ccccc3N(CCN(C)C)C(=O)[C@@H]2OC(C)=O)cc1", "note": "[Diltiazem hydrochloride]", "values": [{"measurement": "Activity", "value": "no"}, {"measurement": "Z Score", "setting": "LOPAC library screen, 3 μM, MTT, neurosphere cultures", "value": 0.5395}, {"measurement": "Z score", "setting": "[8]", "value": 0.540}]}
{"molecule": "CC(N)(Cc1ccc(O)cc1)C(=O)O", "note": "(racemic) [DL-alpha-Methyl-p-tyrosine]", "values": [{"measurement": "Z Score", "value": "−3.908"}, {"measurement": "Z score", "setting": "[1]", "value": "−3.908"}, {"measurement": "Activity", "setting": "[4]", "value": "yes"}]}
{"molecule": "O=C(O)CN(CCOCCOCCN(CC(=O)O)CC(=O)O)CC(=O)O", "values": [{"measurement": "Activity", "value": "no"}, {"measurement": "Z Score", "value": 1.507}, {"measurement": "Z score", "value": 1.507}]}
{"molecule": "CCCCCCCCCCCCCCCCOCC(COCC(F)(F)F)OP(=O)(O)OC", "note": "(stereo not drawn) [MJ33]", "values": [{"measurement": "Z Score", "value": 1.364}, {"measurement": "Z score", "setting": "[1]", "value": 1.364}, {"measurement": "Activity", "setting": "[3]", "value": "no"}]}
{"molecule": "CCCCC#Cc1nc(N)c2ncn([C@@H]3O[C@H](C(=O)NCC)[C@@H](O)[C@H]3O)c2n1", "note": "[HE-NECA]", "values": [{"measurement": "Z Score", "value": "−2.504"}, {"measurement": "Z score", "setting": "[1]", "value": "−2.504"}, {"measurement": "Activity", "setting": "[4]", "value": "yes"}]}
{"molecule": "CC(N)=O", "note": "[Acetamide]", "values": [{"measurement": "Z Score", "setting": "168 h, 3 µM", "value": "−1.94"}, {"measurement": "Z score", "setting": "168 h, 3 µM", "value": "−1.940"}, {"measurement": "Activity", "setting": "[2]", "value": "no"}]}
{"molecule": "COc1cc(/C=C(\\C#N)C(=O)c2ccc(O)c(O)c2)cc(I)c1O", "note": "[I-OMe-Tyrphostin AG 538]", "values": [{"measurement": "Z Score", "setting": "[9]", "value": "−0.7369"}, {"measurement": "Z score", "setting": "[6]", "value": "−0.737"}, {"measurement": "Activity", "setting": "[7]", "value": "no"}]}
{"molecule": "COc1ccccc1N1CCN(CC(O)COc2cccc3ccccc23)CC1", "note": "(stereo not drawn) [Naftopidil dihydrochloride]", "values": [{"measurement": "Z Score", "setting": "[9]", "value": "−0.1172"}, {"measurement": "Z score", "setting": "[1]", "value": "−0.117"}, {"measurement": "Activity", "setting": "[2]", "value": "no"}]}
{"molecule": "CC(N)=NCc1cccc(CN)c1.Cl.Cl", "note": "[1400W dihydrochloride]", "values": [{"measurement": "Z Score", "value": "−0.2749"}, {"measurement": "Z score", "setting": "[6]", "value": "−0.275"}, {"measurement": "Activity", "setting": "[7]", "value": "no"}]}
{"molecule": "COC(=O)C1=C(C)NC(C)=C([N+](=O)[O-])C1c1ccccc1C(F)(F)F", "note": "(racemic) [(±)-Bay K 8644]", "values": [{"measurement": "Z score", "setting": "[8]", "value": 0.853}, {"measurement": "Activity", "setting": "[5]", "value": "no"}]}
